Experimental findings from publication doi:10.1101/2024.07.23.604814v1 (biorxiv, 2024) are described below.

Molecules are shown by their SMILES.

For this test, the target named is T1, mouse sEH (Mus musculus, UniProt P34914).
T1 sequence (P34914 1-554): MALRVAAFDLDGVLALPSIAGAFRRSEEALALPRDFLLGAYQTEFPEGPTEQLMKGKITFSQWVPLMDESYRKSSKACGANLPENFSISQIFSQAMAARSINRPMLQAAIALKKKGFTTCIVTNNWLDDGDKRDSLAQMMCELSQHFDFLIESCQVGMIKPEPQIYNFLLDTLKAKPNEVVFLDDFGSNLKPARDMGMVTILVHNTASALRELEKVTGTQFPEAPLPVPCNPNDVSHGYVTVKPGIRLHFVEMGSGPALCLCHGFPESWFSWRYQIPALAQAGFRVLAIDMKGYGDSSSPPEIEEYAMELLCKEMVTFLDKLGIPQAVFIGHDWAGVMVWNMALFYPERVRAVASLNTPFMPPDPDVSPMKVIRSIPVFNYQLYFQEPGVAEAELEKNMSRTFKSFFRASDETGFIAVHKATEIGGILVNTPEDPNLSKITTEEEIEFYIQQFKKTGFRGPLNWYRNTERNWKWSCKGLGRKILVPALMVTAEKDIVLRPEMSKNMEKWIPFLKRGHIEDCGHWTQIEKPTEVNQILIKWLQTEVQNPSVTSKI
Briefly: fluorogenic substrate hydrolase assay. Format: biochemical. The note with it: recombinant purified enzyme, average of triplicates.
For `O=C(COc1cccc2c1C(=O)N(C1CCC(=O)NC1=O)C2=O)NCCOCCOCCOCCOCCNC(=O)c1ccc(O[C@H]2CC[C@H](NC(=O)Nc3ccc(OC(F)(F)F)cc3)CC2)cc1` (stereo partly drawn) [1a, compound 1a], the IC50 was found to be 4 nM.
On to `O=C1CCC(N2Cc3c(NCCOCCOCCOCCNC(=O)c4ccc(O[C@H]5CC[C@H](NC(=O)Nc6ccc(OC(F)(F)F)cc6)CC5)cc4)cccc3C2=O)C(=O)N1` (stereo partly drawn) [compound 1], for which the IC50 worked out at 1.6 nM.
Consider `O=C1CCC(N2C(=O)c3ccc(NCCOCCOCCOCCOCCNC(=O)c4ccc(O[C@H]5CC[C@H](NC(=O)Nc6ccc(OC(F)(F)F)cc6)CC5)cc4)cc3C2=O)C(=O)N1` (stereo partly drawn) [compound 2], for which the concentration for half-maximal inhibition (IC50) was 0.64 nM.
Then `O=C(COc1ccc(C2CCC(=O)NC2=O)cc1)NCCOCCOCCOCCOCCNC(=O)c1ccc(O[C@H]2CC[C@H](NC(=O)Nc3ccc(OC(F)(F)F)cc3)CC2)cc1` (stereo partly drawn) [compound 3], with 4.7 nM.
The value for `O=C(COc1ccc(N2CCC(=O)NC2=O)cc1)NCCOCCOCCOCCOCCNC(=O)c1ccc(O[C@H]2CC[C@H](NC(=O)Nc3ccc(OC(F)(F)F)cc3)CC2)cc1` [compound 4] was 6 nM.
Then `Cc1ccc(C(=O)NCCOCCOCCOCCOCCNC(=O)c2ccc(O[C@H]3CC[C@H](NC(=O)Nc4ccc(OC(F)(F)F)cc4)CC3)cc2)cc1N1CCC(=O)NC1=O` [compound 5], with 9.3 nM; and `O=C1CCC(N2C(=O)c3cccc(NCCCCCC(=O)N4CCC(NC(=O)Nc5ccc(OC(F)(F)F)cc5)CC4)c3C2=O)C(=O)N1` (stereo not drawn) [compound 9], with 1.4 nM; and `O=C1CCC(N2C(=O)c3cccc(NCCOCCOCCC(=O)N4CCC(NC(=O)Nc5ccc(OC(F)(F)F)cc5)CC4)c3C2=O)C(=O)N1` (stereo not drawn) [compound 10], with 3 nM.
In the case of `Cc1ncsc1-c1ccc(CNC(=O)[C@@H]2C[C@@H](O)CN2C(=O)[C@@H](NC(=O)CCCCCCC(=O)N2CCC(NC(=O)Nc3ccc(OC(F)(F)F)cc3)CC2)C(C)(C)C)cc1` [compound 12], the IC50 is 3.1 nM.
